The results in this text go back to patent publication US20090203737A1, “Pyrrole Derivatives as Positive Allosteric Modulators of Metabotropic Receptors” (priority 2005, published 2009).

A word on the EC50: it is the concentration giving half of the maximal effect.

SMILES strings stand for the structures. “And” between values parts separate entries of the source, which are not always exact repeats. Identical values can stand only once.

T1 sequence (P31424 21-1171 isoform P31424-2 limits assumed): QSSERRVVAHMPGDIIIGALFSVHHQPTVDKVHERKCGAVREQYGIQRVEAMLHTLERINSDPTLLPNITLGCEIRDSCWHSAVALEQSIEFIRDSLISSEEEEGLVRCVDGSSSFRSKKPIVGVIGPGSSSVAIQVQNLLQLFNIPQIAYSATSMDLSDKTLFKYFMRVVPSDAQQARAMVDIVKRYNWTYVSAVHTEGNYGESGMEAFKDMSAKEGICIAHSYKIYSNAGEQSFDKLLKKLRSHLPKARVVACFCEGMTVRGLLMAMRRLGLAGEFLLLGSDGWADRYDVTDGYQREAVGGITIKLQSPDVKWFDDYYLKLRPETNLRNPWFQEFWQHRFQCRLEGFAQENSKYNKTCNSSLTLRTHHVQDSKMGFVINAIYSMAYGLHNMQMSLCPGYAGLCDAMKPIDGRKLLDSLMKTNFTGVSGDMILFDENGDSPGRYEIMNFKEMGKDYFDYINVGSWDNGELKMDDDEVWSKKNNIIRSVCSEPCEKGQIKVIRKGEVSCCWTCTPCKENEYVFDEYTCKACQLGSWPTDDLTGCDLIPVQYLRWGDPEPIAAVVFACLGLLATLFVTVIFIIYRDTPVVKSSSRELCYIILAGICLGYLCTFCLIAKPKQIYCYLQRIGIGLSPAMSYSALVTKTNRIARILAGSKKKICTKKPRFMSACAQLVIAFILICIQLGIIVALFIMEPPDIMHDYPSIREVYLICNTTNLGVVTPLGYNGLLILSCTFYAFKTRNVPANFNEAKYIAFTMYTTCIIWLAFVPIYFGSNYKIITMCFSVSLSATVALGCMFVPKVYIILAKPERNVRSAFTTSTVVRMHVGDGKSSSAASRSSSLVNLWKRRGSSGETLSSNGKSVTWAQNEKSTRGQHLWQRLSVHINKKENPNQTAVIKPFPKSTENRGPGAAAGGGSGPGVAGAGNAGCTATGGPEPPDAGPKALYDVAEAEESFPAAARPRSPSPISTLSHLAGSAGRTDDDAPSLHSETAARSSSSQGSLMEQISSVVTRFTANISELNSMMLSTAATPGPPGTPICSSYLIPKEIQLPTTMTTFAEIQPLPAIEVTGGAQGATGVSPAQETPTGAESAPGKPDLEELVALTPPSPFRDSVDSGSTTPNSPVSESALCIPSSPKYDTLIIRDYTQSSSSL

The assay addresses T1, rat mGluR5 receptor (Rattus norvegicus, UniProt P31424).
T1 construct: expressed in transfected cells
The experiment in a line: mGluR5 assay on HEK-expressing rat mGluR5 (fluorescent cell based Ca2+ mobilization assay). As to conditions: HEK-293 cells stably expressing rat mGluR5; no co-addition of glutamate; mean of at least three independent experiments in duplicate; read-out: Ca++ Flux (mean EC50). How it is done:
Positive functional expression of HEK-293 cells stably expressing rat mGluR5 receptor was determined by measuring intracellular Ca^2+ changes using a Fluorometric Imaging Plate Reader (FLIPR, Molecular Devices, Sunnyvale, Calif.) in response to glutamate or selective known mGluR5 agonists and antagonists. Rat mGluR5 RT-PCR products in HEK-293 cells were sequenced and found 100% identical to rat mGluR5 Genbank reference sequence (NM_017012). HEK-293 cells expressing rmGluR5 were maintained in media containing DMEM, dialyzed Fetal Bovine Serum (10%), Glutamax™ (2 mM), Penicillin (100 units/ml), Streptomycin (100 μg/ml), Geneticin (100 μg/ml) and Hygromycin-B (40 μg/ml) at 37° C./5% CO2.
After one day of incubation, cells were washed with assay buffer containing: 142 mM NaCl, 6 mM KCl, 1 mM […], 1 mM CaCl2, 20 mM HEPES, 1 g/L glucose, 0.125 mM sulfinpyrazone, pH 7.4. After 60 min of loading with 4 uM Fluo-4 (TefLabs, Austin, Tex.), the cells were washed three times with 50 μl of PBS Buffer and resuspended in 45 μl of assay Buffer. The plates were then transferred to a Fluorometric Imaging Plate Reader (FLIPR, Molecular Devices, Sunnyvale, Calif.) for the assessment of intracellular calcium flux. After monitoring the baseline fluorescence for 10 seconds, increasing concentrations of representative compound (from 0.01 to 60 μM) of the present invention diluted in Assay Buffer (15 μl of 4× dilutions) was added to the cell. The final DMSO concentration in the assay was 0.3%. In each experiment, fluorescence was then monitored as a function of time for 3 minutes and the data analyzed using Microsoft Excel and GraphPad Prism. Each data point was also measured two times.
Under these experimental conditions, this HEK-rat mGluR5 cell line is able to directly detect positive allosteric modulators without the need of co-addition of glutamate or mGluR5 agonist.
The concentration-response curves of representative compounds of the present invention were generated using the Prism GraphPad software (Graph Pad Inc, San Diego, USA). The curves were fitted to a four-parameter logistic equation:
(Y=Bottom+(Top−Bottom)/(1+10̂((LogEC50−X)*Hill Slope)
allowing determination of EC50 values.
The Table 1 below represents the mean EC50 obtained from at least three independent experiments of selected molecules performed in duplicate.
In general terms: Calcium flux is commonly read through the fluorescence of an indicator in the cells.
Regarding `O=C(c1ccc(F)cc1F)N1CCC[C@H](c2nc(-c3cc4ccccc4[nH]3)no2)C1` [Example 12, (2,4-Difluoro-phenyl)-{(S)-3-[3-(1H-indol-2-yl)-[1,2,4]oxadiazol-5-yl]-piperidin-1-yl}-methanone], the EC50 lay in the range of 1000 to 10000 nM.
For `Cc1c[nH]c(-c2noc([C@H]3CCCN(C(=O)c4ccc(F)nc4)C3)n2)c1` [Example 33, (6-Fluoro-pyridin-3-yl)-{(S)-3-[3-(4-methyl-1H-pyrrol-2-yl)-[1,2,4]oxadiazol-5-yl]-piperidin-1-yl}-methanone] the value was less than 1000 nM.
To `Cc1c[nH]c(-c2nc([C@H]3CCCN(C(=O)c4ccc(F)nc4)C3)no2)c1` [Example 28, (6-Fluoro-pyridin-3-yl)-{(S)-3-[5-(4-methyl-1H-pyrrol-2-yl)-[1,2,4]oxadiazol-3-yl]-piperidin-1-yl}-methanone] belongs less than 1000 nM.
Consider `O=C(c1ccc(F)nc1)N1CCC[C@H](c2noc(-c3cc(Cl)c[nH]3)n2)C1` [Example 40, {(S)-3-[5-(4-Chloro-1H-pyrrol-2-yl)-[1,2,4]oxadiazol-3-yl]-piperidin-1-yl}-(6-fluoro-pyridin-3-yl)-methanone], for which the EC50 is less than 1000 nM.
Turning to `O=C(c1ccc(F)nc1)N1CCC[C@H](c2noc(-c3cc(F)c[nH]3)n2)C1` [Example 64, (6-Fluoro-pyridin-3-yl)-{(S)-3-[5-(4-fluoro-1H-pyrrol-2-yl)-[1,2,4]oxadiazol-3-yl]-piperidin-1-yl}-methanone], the EC50 fell in the range of 1000 to 10000 nM.
To `Cc1oncc1C(=O)N1CCC[C@H](c2nc(-c3cc(Cl)c[nH]3)no2)C1` [Example 68, {(S)-3-[3-(4-Chloro-1H-pyrrol-2-yl)-[1,2,4]oxadiazol-5-yl]-piperidin-1-yl}-(5-methyl-isoxazol-4-yl)-methanone] belongs 1000 to 10000 nM.
For the compound `O=C(c1ccc(F)cc1)N1CCC[C@H](c2nc(-c3ncc[nH]3)no2)C1` [Example 24, (4-Fluoro-phenyl)-{(S)-3-[3-(1H-imidazol-2-yl)-[1,2,4]oxadiazol-5-yl]-piperidin-1-yl}-methanone], the EC50 lay within 1000 to 10000 nM.
Regarding `O=C(c1ccc(F)cc1)N1CCC[C@H](n2nnc(-c3ccc[nH]3)n2)C1` [Example 54, (4-Fluoro-phenyl)-{(S)-3-[5-(1H-pyrrol-2-yl)-tetrazol-2-yl]-piperidin-1-yl}-methanone], the EC50 is less than 1000 nM.
Take `Cc1c[nH]c(-c2nc([C@H]3CCCN(C(=O)c4ccncc4F)C3)no2)c1` [Example 58, (3-Fluoro-pyridin-4-yl)-{(S)-3-[5-(4-methyl-1H-pyrrol-2-yl)-[1,2,4]oxadiazol-3-yl]-piperidin-1-yl}-methanone]: the EC50 is less than 1000 nM.
For `O=C(c1ccc(F)cc1)N1CCC[C@H](c2noc(-c3cc(Cl)c[nH]3)n2)C1` [Example 39, {(S)-3-[5-(4-Chloro-1H-pyrrol-2-yl)-[1,2,4]oxadiazol-3-yl]-piperidin-1-yl}-(4-fluoro-phenyl)-methanone] the value was less than 1000 nM; for `O=C(c1ccc(F)c(F)c1)N1CCCC(c2noc(-c3ccn[nH]3)n2)C1` (stereo not shown) [Example 14, (3,4-Difluoro-phenyl)-{3-[5-(2H-pyrazol-3-yl)-[1,2,4]oxadiazol-3-yl]-piperidin-1-yl}-methanone], greater than 10000 nM.
To `O=C(c1ccc(F)nc1)N1CCC[C@H](c2nc(-c3cc(Br)c[nH]3)no2)C1` [Example 46, {(S)-3-[3-(4-Bromo-1H-pyrrol-2-yl)-[1,2,4]oxadiazol-5-yl]-piperidin-1-yl}-(6-fluoro-pyridin-3-yl)-methanone] belongs less than 1000 nM; to `O=C(c1ccc(F)cc1)N1CCC(c2nc(-c3ccc[nH]3)no2)C1` (stereo not shown) [Example 57, (4-Fluoro-phenyl)-{3-[3-(1H-pyrrol-2-yl)-[1,2,4]oxadiazol-5-yl]-pyrrolidin-1-yl}-methanone], 1000 to 10000 nM; to `Cc1c[nH]c(-c2nc([C@H]3CCCN(C(=O)c4ccnc(F)c4)C3)no2)c1` [Example 30, (2-Fluoro-pyridin-4-yl)-{(S)-3-[5-(4-methyl-1H-pyrrol-2-yl)-[1,2,4]oxadiazol-3-yl]-piperidin-1-yl}-methanone], less than 1000 nM.
With `O=C(c1ccc(F)cc1)N1CCC[C@H](c2noc(-c3nc(C(F)(F)F)c[nH]3)n2)C1` [Example 55, (4-Fluoro-phenyl)-{(S)-3-[5-(4-trifluoromethyl-1H-imidazol-2-yl)-[1,2,4]oxadiazol-3-yl]-piperidin-1-yl}-methanone], the EC50 is 1000 to 10000 nM.
For `Cc1oncc1C(=O)N1CCC[C@H](c2noc(-c3cc(Cl)c[nH]3)n2)C1` [Example 42, {(S)-3-[5-(4-Chloro-1H-pyrrol-2-yl)-[1,2,4]oxadiazol-3-yl]-piperidin-1-yl}-(5-methyl-isoxazol-4-yl)-methanone] the value was less than 1000 nM.
For `O=C(c1ccncc1F)N1CCC[C@H](c2nc(-c3cc(F)c[nH]3)no2)C1` [Example 70, (3-Fluoro-pyridin-4-yl)-{(S)-3-[3-(4-fluoro-1H-pyrrol-2-yl)-[1,2,4]oxadiazol-5-yl]-piperidin-1-yl}-methanone], the EC50 fell in the range of 1000 to 10000 nM.
For `O=C(c1ccnc(F)c1)N1CCC[C@H](c2noc(-c3cc(Cl)c[nH]3)n2)C1` [Example 41, {(S)-3-[5-(4-Chloro-1H-pyrrol-2-yl)-[1,2,4]oxadiazol-3-yl]-piperidin-1-yl}-(2-fluoro-pyridin-4-yl)-methanone] the value was less than 1000 nM; for `Cc1ccc(-c2nc([C@H]3CCCN(C(=O)c4ccc(F)cc4)C3)no2)[nH]1` [Example 38, (4-Fluoro-phenyl)-{(S)-3-[5-(5-methyl-1H-pyrrol-2-yl)-[1,2,4]oxadiazol-3-yl]-piperidin-1-yl}-methanone], 1000 to 10000 nM; for `O=C(c1ccc(F)cc1)N1CCCC(c2noc(-c3ncc[nH]3)n2)C1` (stereo not shown) [Example 17, (4-Fluoro-phenyl)-{3-[5-(1H-imidazol-2-yl)-[1,2,4]oxadiazol-3-yl]-piperidin-1-yl}-methanone], 1000 to 10000 nM.
Regarding `O=C(c1ccc(F)cc1)N1CCCC(c2noc(-c3ccn[nH]3)n2)C1` (stereo not shown) [Example 13, (4-Fluoro-phenyl)-{3-[5-(2H-pyrazol-3-yl)-[1,2,4]oxadiazol-3-yl]-piperidin-1-yl}-methanone], the EC50 was greater than 10000 nM.
To `O=C(c1ccncc1F)N1CCC[C@H](c2noc(-c3cc(C(F)(F)F)c[nH]3)n2)C1` [Example 77, (3-Fluoro-pyridin-4-yl)-{(S)-3-[5-(4-trifluoromethyl-1H-pyrrol-2-yl)[1,2,4]oxadiazol-3-yl]-piperidin-1-yl}-methanone] belongs 1000 to 10000 nM; to `CC1(C)CC(c2nc(-c3ccc[nH]3)no2)CN(C(=O)c2ccc(F)cc2)C1` (stereo not shown) [Example 49, {3,3-Dimethyl-5-[3-(1H-pyrrol-2-yl)-[1,2,4]oxadiazol-5-yl]-piperidin-1-yl}-(4-fluoro-phenyl)-methanone], 1000 to 10000 nM; to `O=C(c1ccc(F)nc1)N1CCC[C@H](c2noc(-c3cc(Br)c[nH]3)n2)C1` [Example 44, {(S)-3-[5-(4-Bromo-1H-pyrrol-2-yl)-[1,2,4]oxadiazol-3-yl]-piperidin-1-yl}-(6-fluoro-pyridin-3-yl)-methanone], < 1000 nM and > 10000 nM.
Take `O=C(c1ccncc1F)N1CCC[C@H](c2nc(-c3cc(Br)c[nH]3)no2)C1` [Example 69, {(S)-3-[3-(4-Bromo-1h-pyrrol-2-yl)-[1,2,4]oxadiazol-5-yl]-piperidin-1-yl}-(3-fluoro-pyridin-4-yl)-methanone]: the EC50 was in the range of 1000 to 10000 nM.
For `O=C(c1ccnc(F)c1)N1CCC[C@H](c2nc(-c3cc(F)c[nH]3)no2)C1` [Example 53, (2-Fluoro-pyridin-4-yl)-{(S)-3-[3-(4-fluoro-1H-pyrrol-2-yl)-[1,2,4]oxadiazol-5-yl]-piperidin-1-yl}-methanone] the value was less than 1000 nM; for `Cc1c[nH]c(-c2noc([C@H]3CCCN(C(=O)c4ccc(F)c(F)c4)C3)n2)n1` [Example 79, (3,4-Difluoro-phenyl)-{(S)-3-[3-(4-methyl-1H-imidazol-2-yl)-[1,2,4]oxadiazol-5-yl]-piperidin-1-yl}-methanone], 1000 to 10000 nM; for `Cc1c[nH]c(-c2noc([C@H]3CCCN(C(=O)c4cnoc4C)C3)n2)c1` [Example 35, (5-Methyl-isoxazol-4-yl)-{(S)-3-[3-(4-methyl-1H-pyrrol-2-yl)-[1,2,4]oxadiazol-5-yl]-piperidin-1-yl}-methanone], less than 1000 nM.
